Reference: patent publication US5939448A, “Triazole derivative or salt thereof” (SS Pharmaceutical Co., Ltd., priority 1996, dated 1999)
In brackets after ≈: the same amount, converted by molar mass.

Experiments:
[1] = system: C. albicans IFM 40009; test: Test 4: In vivo antifungal activity against Candida albicans (survival of infected mice); parameters: species or system Candida albicans; male ICR (CRJ: CD-1) mouse; conditions: oral 1.25 mg/kg each, four times in total; for Mean survival days: 14 days after infection, vs. control ***: p < 0.001, **: p < 0.01; for Survival mice on 14-th day: survivors/mice of group
Method: Test 4: In vivo antifungal activity against Candida albicans
After 4-week-old, male, ICR (CRJ: CD-1) mouse was fasted for 6 hours, C. albicans IFM 40009 was inoculated to a tail vein of the mouse to give an amount of 3.0×10^6 cells/mouse, whereby infection was caused. A control group consisted of 8 mice, while a chemical-administered group consisted of 5 mice. The chemical was orally administered once an hour after the inoculation of the fungus and 24 hours after the inoculation, and once a day consecutively, four times in total, at 1.25 mg/kg each. The survival during 14 days after the infection was counted. In addition, the mean survival days of the control group and the mean survival days of the chemical-administered group were compared and statistically analyzed by the Kaplan-Meire method (Cox mantel test).

[2] = system: A. flavus IFM 41935; test: Test 3: In vitro antifungal activity against Aspergillus flavus (MIC); assay type: cell-based; conditions: IFM41935, RPMI 1640 with 0.165M MOPS, pH 7, 35° C., 24 hours
Method: Test 3: In vitro antifungal activity against Aspergillus flavus
(§1) They were incubated at 35° C. for 24 hours.

[3] = system: C. albicans ATCC 44859; test: Test 1: In vitro antifungal activity against Candida albicans (suppression of mycelial type growth); assay type: cell-based; conditions: ATCC44859, minimum concentration permitting apparent suppression of mycerial type growth, 10% fetal bovine serum added MEM, 37° C., 20 hours, read-out: Terminal Point C. albicans
Method: Test 1: In vitro antifungal activity against Candida albicans
They were incubated at 37° C. for 20 hours in a CO2 gas incubator. After incubation, morphological change of C. albicans was observed under an inverted microscope.

[4] = system: A. fumigatus IFM 40808; test: Test 2: In vitro antifungal activity against Aspergillus fumigatus (MIC); assay type: cell-based; conditions: IFM40808, RPMI 1640 with 0.165M MOPS, pH 7, 35° C., 24 hours
Method: Test 2: In vitro antifungal activity against Aspergillus fumigatus
as §1

Compound | Mean survival days [1] | Survival mice on 14-th day [1] | MIC [2] | MIC [3] | MIC [4]
O=S(=O)(CCO)C(F)(F)C(O)(Cn1cncn1)c1ccc(F)cc1F (stereo not drawn) [Example 20, 2-(2,4-difluorophenyl)-1,1-difluoro-1-(2-hydroxyethyl)sulfonyl-3-(1H-1,2,4-triazol-1-yl)propan-2-ol] | 14.0 days | 5/5 | – | – | –
COCCS(=O)(=O)C(F)(F)C(O)(Cn1cncn1)c1ccc(F)cc1F (stereo not drawn) [Example 21, 2-(2,4-difluorophenyl)-1,1-difluoro-1-(2-methoxyethyl)sulfonyl-3-(1H-1,2,4-triazol-1-yl)propan-2-ol] | 14.0 days | 4/5 | 32 µg/mL (≈ 80.5 µM) | 0.0625 µg/mL (≈ 0.157 µM) | 16 µg/mL (≈ 40.3 µM)
CC(=O)OCCSC(F)(F)C(O)(Cn1cncn1)c1ccc(F)cc1F (stereo not drawn) [Example 14, 1-(2-acetoxyethyl)thio-2-(2,4-difluorophenyl)-1,1-difluoro-3-(1H-1,2,4-triazol-1-yl)propan-2-ol] | – | – | 4 µg/mL (≈ 10.2 µM) | 0.0313 µg/mL (≈ 0.0796 µM) | 8 µg/mL (≈ 20.3 µM)
OCCSC(F)(F)C(O)(Cn1cncn1)c1ccc(F)cc1F (stereo not drawn) [Example 18, 2-(2,4-difluorophenyl)-1,1-difluoro-1-(2-hydroxyethyl)thio-3-(1H-1,2,4-triazol-1-yl)propan-2-ol] | – | – | 64 µg/mL (≈ 182 µM) | 0.25 µg/mL (≈ 0.712 µM) | 64 µg/mL (≈ 182 µM)
OC(Cn1cncn1)(Cn1cncn1)c1ccc(F)cc1F [Fluconazole, reference compound] | 9.6 days | 0/5 | > 128 µg/mL | 0.25 µg/mL (≈ 0.816 µM) | > 128 µg/mL
COCCSC(F)(F)C(O)(Cn1cncn1)c1ccc(F)cc1F (stereo not drawn) [Example 15, 2-(2,4-difluorophenyl)-1,1-difluoro-1-(2-methoxyethyl)thio-3-(1H-1,2,4-triazol-1-yl)propan-2-ol] | – | – | 8 µg/mL (≈ 21.9 µM) | 0.0156 µg/mL (≈ 0.0427 µM) | 4 µg/mL (≈ 10.9 µM)
